The nature of the test: Binding affinity against Carboxypeptidase A.
Compound `O=C(O)CC(CSCCS)Cc1ccccc1` (stereo unspecified) had an inhibitory constant (Ki) of 19 µM.

In turn, `O=C(O)C(CCc1ccccc1S)Cc1ccccc1` (stereo unspecified) displayed an inhibitory constant (Ki) of 5.8 µM.

In the case of `NC(=O)C(CSCCS)Cc1ccccc1` (stereo unspecified), the affinity, expressed as Ki, was 29 µM.

The compound `O=C(O)c1cccc(C(=O)NC(Cc2ccccc2)C(=O)O)n1` (stereo unspecified) came in with a Ki of 790 µM.

Consider `O=C(O)C(CSCCS)Cc1ccccc1` (stereo unspecified), for which the Ki amounted to 4.2 µM.

`O=C(O)C(Cc1ccccc1)SCCS` (stereo unspecified) registered an inhibition constant (Ki) of 21 µM.

As to `CCCCCC(Cc1ccccc1)C(=O)O` (stereo unspecified), the inhibition constant (Ki) stood at 620 µM.

Compound `O=C(CC(Cc1ccccc1)C(=O)O)c1ccccn1` (stereo unspecified) had a Ki of 82 µM.

In turn, `O=C(O)C(Cc1ccccc1)NC/C(=N\O)c1ccccn1` (stereo unspecified) had an inhibitory constant (Ki) of 580 µM.

`CCCSCC(Cc1ccccc1)C(=O)O` (stereo unspecified) registered a Ki of 340 µM.

Consider `O=C(NC(Cc1ccccc1)C(=O)O)c1cnccn1` (stereo unspecified), for which the affinity, expressed as Ki, was 180 µM.

With `O=C(CC/C(=N\O)c1ccccn1)NC(Cc1ccccc1)C(=O)O` (stereo unspecified), the inhibition constant (Ki) was > 300 µM.

Regarding `NC(=O)C(CCSCCS)Cc1ccccc1` (stereo unspecified), the Ki was 92 µM.

Consider `O=C(O)C(C/C(=N\O)c1ccccn1)Cc1ccccc1` (stereo unspecified), for which the Ki was > 300 µM.

In turn, `O=C(O)C(CCCCS)Cc1ccccc1` (stereo unspecified) gave a Ki of 45 µM.

For the compound `O=C(CC(Cc1ccccc1)C(=O)O)c1ccccc1S` (stereo unspecified), the affinity corresponds to a Ki of 4.4 µM.

Take `O=C(Nc1ccccc1)C(CSCCS)Cc1ccccc1` (stereo unspecified): the Ki is 34 µM.

In turn, `O=C(NC(Cc1ccccc1)C(=O)O)c1ccccn1` (stereo unspecified) had an inhibition constant (Ki) of 370 µM.

Compound `O=C(O)C(Cc1ccccc1)SCCSc1ccccc1` (stereo unspecified) yielded an inhibition constant Ki of 670 µM.

As to `O=C(O)C(CSCCSCc1ccccc1)Cc1ccccc1` (stereo unspecified), the Ki was 660 µM.

Regarding `O=C(O)C(Cc1ccccc1)(Cc1ccccc1)SCCSc1ccccc1`, the affinity corresponds to a Ki of 450 µM.

Broadly, the Ki is a measure of affinity in units of concentration, obtained from inhibition or displacement. Low values mean a stronger hold on the target, high ones a looser hold on the target.

The values above are taken from ChEMBL document CHEMBL1128853, “Zn(II)-chelating inhibitors of carboxypeptidase A” (Bioorg Med Chem Lett, 1995).
